{"source": "paper PMC6917776", "about": "“Discovery of a chemical probe for PRDM9” (Nature Communications, 2019)", "key": {"Opiate µ receptor (MOR)": {"target": "T1, Opiate µ receptor (MOR) (Homo sapiens, UniProt P35372)", "T1 construct": "NIMH Psychoactive Drug Screening Program, University of North Carolina at Chapel Hill", "T1 sequence (P35372 whole entry)": "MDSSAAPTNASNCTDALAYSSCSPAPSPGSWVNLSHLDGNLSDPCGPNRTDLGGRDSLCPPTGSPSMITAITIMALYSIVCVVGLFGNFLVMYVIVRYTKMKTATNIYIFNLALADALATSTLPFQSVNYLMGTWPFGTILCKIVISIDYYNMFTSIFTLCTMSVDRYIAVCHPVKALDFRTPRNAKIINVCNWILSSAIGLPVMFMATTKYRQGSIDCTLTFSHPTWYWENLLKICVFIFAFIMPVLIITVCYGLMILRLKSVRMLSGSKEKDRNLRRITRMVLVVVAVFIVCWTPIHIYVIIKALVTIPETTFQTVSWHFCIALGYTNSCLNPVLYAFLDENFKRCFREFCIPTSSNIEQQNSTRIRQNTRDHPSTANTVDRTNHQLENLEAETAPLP", "test": "GPCR functional activity, GloSensor assay (agonist and antagonist mode)", "assay_type": "cell-based", "conditions": "for MOR Tango Antagonist, raw signal: replicates 1-4; for MOR Gi Agonist, raw signal: replicates 1-3", "description": "(§1) Supplementary Figure 5. Assessment of GPCR functional activity. […]\n(§2) profiles were generously provided by the National Institute of Mental Health’s (NIMH)\n(§3) Psychoactive Drug Screening Program, (Contract # HHSN-271-2013-00017-C) directed by B.L.\n(§4) Roth, University of North Carolina at Chapel Hill and Project Officer J. Driscoll at NIMH,\n(§5) Bethesda, Maryland, USA. Further details available at https://pdspdb.unc.edu/pdspWeb/.\n(§6) MOR stands for “Opiate µ receptor”. […]\n(§7) […] Source data are provided as a"}, "Adrenergic α2B": {"target": "T2, Adrenergic α2B (Homo sapiens, UniProt P18089)", "T2 construct": "NIMH Psychoactive Drug Screening Program, University of North Carolina at Chapel Hill", "T2 sequence (P18089 whole entry)": "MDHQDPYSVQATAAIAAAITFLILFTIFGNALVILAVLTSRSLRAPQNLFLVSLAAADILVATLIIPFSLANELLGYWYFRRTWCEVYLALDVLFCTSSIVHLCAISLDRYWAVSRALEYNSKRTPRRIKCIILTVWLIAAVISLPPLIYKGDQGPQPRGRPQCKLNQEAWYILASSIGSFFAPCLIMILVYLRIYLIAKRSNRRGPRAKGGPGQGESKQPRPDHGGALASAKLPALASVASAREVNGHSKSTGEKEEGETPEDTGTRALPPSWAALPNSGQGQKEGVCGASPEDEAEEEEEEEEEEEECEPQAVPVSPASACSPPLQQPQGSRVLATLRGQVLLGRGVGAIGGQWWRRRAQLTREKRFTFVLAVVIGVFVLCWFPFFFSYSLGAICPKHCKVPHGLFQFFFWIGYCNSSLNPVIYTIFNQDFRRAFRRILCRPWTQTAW", "test": "GPCR functional activity, GloSensor assay (agonist and antagonist mode)", "assay_type": "cell-based", "description": "as §1, §2, §3, §4, §5, §6, §7"}, "Muscarinic M2": {"target": "T3, Muscarinic M2 (Homo sapiens, UniProt P08172)", "T3 construct": "NIMH Psychoactive Drug Screening Program, University of North Carolina at Chapel Hill", "T3 sequence (P08172 1-466)": "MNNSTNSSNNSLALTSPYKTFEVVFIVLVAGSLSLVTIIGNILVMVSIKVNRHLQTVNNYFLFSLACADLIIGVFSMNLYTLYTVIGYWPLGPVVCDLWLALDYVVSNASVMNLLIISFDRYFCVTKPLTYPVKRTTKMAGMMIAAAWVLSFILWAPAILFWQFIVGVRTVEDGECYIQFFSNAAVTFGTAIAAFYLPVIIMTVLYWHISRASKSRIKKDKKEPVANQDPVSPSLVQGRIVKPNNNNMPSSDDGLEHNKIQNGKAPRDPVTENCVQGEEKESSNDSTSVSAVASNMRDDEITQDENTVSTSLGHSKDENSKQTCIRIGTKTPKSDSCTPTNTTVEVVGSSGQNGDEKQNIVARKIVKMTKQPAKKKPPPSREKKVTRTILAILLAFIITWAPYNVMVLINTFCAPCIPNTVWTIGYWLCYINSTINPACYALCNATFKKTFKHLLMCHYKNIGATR", "test": "Eurofins Panlabs panel, radioligand binding", "conditions": "at 10 µM"}, "Histamine H3 [1]": {"target": "T4, Histamine H3 (Homo sapiens, UniProt Q9Y5N1)", "T4 construct": "NIMH Psychoactive Drug Screening Program, University of North Carolina at Chapel Hill", "T4 sequence (Q9Y5N1 whole entry)": "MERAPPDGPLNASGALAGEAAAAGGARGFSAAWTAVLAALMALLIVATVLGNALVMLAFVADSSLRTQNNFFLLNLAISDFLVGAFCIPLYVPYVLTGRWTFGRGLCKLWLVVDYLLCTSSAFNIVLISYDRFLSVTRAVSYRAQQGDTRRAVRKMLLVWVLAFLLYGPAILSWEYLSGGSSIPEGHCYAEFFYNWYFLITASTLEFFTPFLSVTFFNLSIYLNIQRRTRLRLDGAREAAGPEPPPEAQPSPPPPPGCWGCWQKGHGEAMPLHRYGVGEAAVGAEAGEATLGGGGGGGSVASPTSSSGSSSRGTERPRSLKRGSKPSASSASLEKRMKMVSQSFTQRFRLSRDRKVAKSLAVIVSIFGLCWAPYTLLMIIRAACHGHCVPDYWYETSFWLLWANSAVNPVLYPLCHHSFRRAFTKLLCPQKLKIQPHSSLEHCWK", "test": "Eurofins Panlabs panel, radioligand binding", "conditions": "at 10 µM"}, "[2]": {"tested_on": "panel of 108 enzymes and receptors", "test": "Eurofins Panlabs customized panel profiling", "assay_type": "binding"}, "MCF7 cells": {"tested_on": "MCF7 cells", "test": "Cell growth, IncuCyte ZOOM cell number", "assay_type": "cell-based", "conditions": "for Cell growth (Cell#): MCF7, 5 day treatment, technical replicates", "procedure": "HEK293T or MCF7 cells were seeded on 96-well plates and the following day treated with compounds for indicated time. Cell number was determined with Vybrant® DyeCycle™ Green using IncuCyte™ ZOOM live cell imaging device (Essen Bioscence) and analyzed with IncuCyte™ ZOOM (2015A) software.\n(top graphs) and MCF7 cells (bottom graph). Cells were treated with compounds for 2 and 4 days or 5 days in case of MCF7. Cell number was measured using IncuCyte™ ZOOM live cell imaging device. The results are MEAN +/- SEM, n=3 (technical replicates). Source data are provided as a Source Data file.\n(1 picture or pasted object on this page, not shown here)"}, "Histamine H3 [3]": {"target": "T4, Histamine H3", "test": "GPCR functional activity, GloSensor assay (agonist and antagonist mode)", "assay_type": "cell-based", "description": "Supplementary Figure 5. Assessment of GPCR functional activity. GloSensor® assay was\nas §2, §3, §4, §5, §6, §7"}, "Opiate µ receptor": {"target": "T5, Opiate µ receptor (Homo sapiens, UniProt P35372)", "T5 construct": "Eurofins Panlabs Discovery Services, Taiwan", "T5 sequence (P35372 whole entry)": "as the sequence (P35372 whole entry) above", "test": "Eurofins Panlabs panel, radioligand binding", "conditions": "at 10 µM"}}, "note": "Values joined by “and” are separate entries in the source; they are usually repeats but may differ in a detail not shown here. Equal values may be shown once.", "data": [{"compound": "COc1cc(OC)cc(-c2noc(N3CCN(C)C4(CCN(c5ccnc(C)c5)CC4)C3)n2)c1", "note": "[MRK-740]", "values": [{"measurement": "MOR Tango Antagonist, raw signal", "setting": "Opiate µ receptor (MOR); log[MRK-740] -5.52", "value": "5940.98 and 5705.68 and 7225.22 and 4368.69"}, {"measurement": "MOR Gi Agonist, raw signal", "setting": "Opiate µ receptor (MOR); log[MRK-740] -6", "value": "441.227 and 430.191 and 452.263"}, {"measurement": "MOR Tango Antagonist, raw signal", "setting": "Opiate µ receptor (MOR); log[MRK-740] -6", "value": "5577.04 and 4612.78 and 4219.16 and 5663.9"}, {"measurement": "MOR Gi Agonist, raw signal", "setting": "Opiate µ receptor (MOR); log[MRK-740] -6.52", "value": "489.51 and 460.54 and 466.058"}, {"measurement": "MOR Tango Antagonist, raw signal", "setting": "Opiate µ receptor (MOR); log[MRK-740] -6.52", "value": "4965.72 and 6716.14 and 4770.01 and 6856.88"}, {"measurement": "MOR Gi Agonist, raw signal", "setting": "Opiate µ receptor (MOR); log[MRK-740] -7", "value": "347.421 and 472.956 and 397.083"}, {"measurement": "MOR Tango Antagonist, raw signal", "setting": "Opiate µ receptor (MOR); log[MRK-740] -7", "value": "4544.61 and 3827.75 and 5625.42 and 6334.6"}, {"measurement": "MOR Gi Agonist, raw signal", "setting": "Opiate µ receptor (MOR); log[MRK-740] -7.52", "value": "452.263 and 417.776 and 391.565"}, {"measurement": "MOR Tango Antagonist, raw signal", "setting": "Opiate µ receptor (MOR); log[MRK-740] -7.52", "value": "9293.5 and 6501.73 and 7215.33 and 6591.89"}, {"measurement": "MOR Gi Agonist, raw signal", "setting": "Opiate µ receptor (MOR); log[MRK-740] -8", "value": "452.263 and 390.186 and 408.119"}, {"measurement": "MOR Tango Antagonist, raw signal", "setting": "Opiate µ receptor (MOR); log[MRK-740] -8", "value": "5778.25 and 5276.87 and 5467.09 and 6480.84"}, {"measurement": "MOR Gi Agonist, raw signal", "setting": "Opiate µ receptor (MOR); log[MRK-740] -8.52", "value": "394.631 and 390.374 and 448.545"}, {"measurement": "MOR Tango Antagonist, raw signal", "setting": "Opiate µ receptor (MOR); log[MRK-740] -8.52", "value": "5605.48 and 3120.04 and 6717.48 and 4672.02"}, {"measurement": "MOR Gi Agonist, raw signal", "setting": "Opiate µ receptor (MOR); log[MRK-740] -9", "value": "413.075 and 366.255 and 451.383"}, {"measurement": "MOR Tango Antagonist, raw signal", "setting": "Opiate µ receptor (MOR); log[MRK-740] -9", "value": "3692.19 and 5665.93 and 3690.78 and 6270.43"}, {"measurement": "MOR Gi Agonist, raw signal", "setting": "Opiate µ receptor (MOR); log[MRK-740] -9.52", "value": "424.425 and 437.195 and 438.613"}, {"measurement": "MOR Tango Antagonist, raw signal", "setting": "Opiate µ receptor (MOR); log[MRK-740] -9.52", "value": "5109.22 and 7289.66 and 4705.76 and 4478.02"}, {"measurement": "MOR Gi Agonist, raw signal", "setting": "Opiate µ receptor (MOR); log[MRK-740] -10", "value": "492.528 and 401.725 and 449.964"}, {"measurement": "MOR Tango Antagonist, raw signal", "setting": "Opiate µ receptor (MOR); log[MRK-740] -10", "value": "3780.75 and 4352.9 and 3641.58 and 3605.03"}, {"measurement": "MOR Gi Agonist, raw signal", "setting": "Opiate µ receptor (MOR); log[MRK-740] -10.52", "value": "408.819 and 508.135 and 464.152"}, {"measurement": "MOR Tango Antagonist, raw signal", "setting": "Opiate µ receptor (MOR); log[MRK-740] -10.52", "value": "4105.49 and 4174.37 and 7219.37 and 6121.41"}, {"measurement": "MOR Gi Agonist, raw signal", "setting": "Opiate µ receptor (MOR); log[MRK-740] -11", "value": "516.647 and 510.972 and 540.767"}, {"measurement": "MOR Tango Antagonist, raw signal", "setting": "Opiate µ receptor (MOR); log[MRK-740] -11", "value": "4295.27 and 3517.87 and 4659.37 and 5872.58"}, {"measurement": "MOR Gi Agonist, raw signal", "setting": "Opiate µ receptor (MOR); log[MRK-740] -11.52", "value": "627.314 and 488.271 and 566.306"}, {"measurement": "MOR Tango Antagonist, raw signal", "setting": "Opiate µ receptor (MOR); log[MRK-740] -11.52", "value": "8307.51 and 6114.38 and 4948.96 and 5192.17"}, {"measurement": "MOR Gi Agonist, raw signal", "setting": "Opiate µ receptor (MOR); log[MRK-740] -12", "value": "684.066 and 560.63 and 516.647"}, {"measurement": "MOR Tango Antagonist, raw signal", "setting": "Opiate µ receptor (MOR); log[MRK-740] -12", "value": "4510.35 and 4657.96 and 5814.94 and 6055.34"}, {"measurement": "Functional activity (in words)", "setting": "Adrenergic α2B", "value": "no functional activity"}, {"measurement": "Binding", "setting": "Muscarinic M2", "value": "> 50", "unit": "%"}, {"measurement": "Binding", "setting": "Histamine H3 [1]", "value": "> 50", "unit": "%"}, {"measurement": "Panel of 108 enzymes and receptors: targets with significant (>50% at 10 µM) binding", "setting": "[2]", "value": "binding only to Adrenergic α2B, Histamine H3, Muscarinic M2 and Opiate µ receptors"}, {"measurement": "MCF7 cell viability (in words)", "setting": "MCF7 cells; 10 µM, 5-day proliferation assay", "value": "minimal impact on MCF7 cell viability"}, {"measurement": "Cell growth (Cell#)", "setting": "MCF7 cells; 0.3 µM", "value": "106.53 % control and 74.2747 % control and 75.9554 % control"}, {"measurement": "Cell growth (Cell#)", "setting": "MCF7 cells; 1 µM", "value": "111.892 % control and 99.8066 % control and 82.4385 % control"}, {"measurement": "Cell growth (Cell#)", "setting": "MCF7 cells; 3 µM", "value": "103.969 % control and 69.7125 % control and 102.608 % control"}, {"measurement": "Cell growth (Cell#)", "setting": "MCF7 cells; 10 µM", "value": "66.6711 % control and 77.6362 % control and 64.0299 % control"}, {"measurement": "Cell growth (Cell#)", "setting": "MCF7 cells; 20 µM", "value": "36.7371 % control and 35.4566 % control and 42.0196 % control"}, {"measurement": "Functional activity (in words)", "setting": "Histamine H3 [3]", "value": "no functional activity"}, {"measurement": "Binding", "setting": "Opiate µ receptor", "value": "> 50", "unit": "%"}]}]}
